Experimental data: ChEMBL document CHEMBL1122667, “Acetylation of some novel hemicholinium compounds by soluble choline acetyltransferase: structure-activity relationships” (J Med Chem, 1984)

B1: Choline O-acetyltransferase (Rattus norvegicus), P32738 (protein)
chain: MPILEKAPQKMPVKASSWEELDLPKLPVPPLQQTLATYLQCMQHLVPEEQFRKSQAIVKRFGAPGGLGETLQEKLLERQEKTANWVSEYWLNDMYLNNRLALPVNSSPAVIFARQHFQDTNDQLRFAACLISGVLSYKTLLDSHSLPTDWAKGQLSGQPLCMKQYYRLFSSYRLPGHTQDTLVAQKSSIMPEPEHVIVACCNQFFVLDVVINFRRLSEGDLFTQLRKIVKMASNEDERLPPIGLLTSDGRSEWAKARTVLLKDSTNRDSLDMIERCICLVCLDGPGTGELSDTHRALQLLHGGGCSLNGANRWYDKSLQFVVGRDGTCGVVCEHSPFDGIVLVQCTEHLLKHMMTSNKKLVRADSVSELPAPRRLRLKCSPETQGHLASSAEKLQRIVKNLDFIVYKFDNYGKTFIKKQKYSPDGFIQVALQLAYYRLYQRLVPTYESASIRRFQEGRVDNIRSATPEALAFVQAMTDHKAAMPASEKLQLLQTAMQAHKQYTVMAITGMAIDNHLLALRELARDLCKEPPEMFMDETYLMSNRFVLSTSQVPTTMEMFCCYGPVVPNGNGACYNPQPEAITFCISSFHSCKETSSVEFAEAVGASLVDMRDLCSSRQPADSKPPAPKEKARGPSQAKQS

Legend:
[1] = biological target: T1, Choline O-acetyltransferase (Rattus norvegicus) (UniProt P32738); experiment: Rate of acetylation of 13.0+/-1.1 umol compound by 1 g of choline acetyltransferase (ChAc) by incubating for 10 minutes at 37 degrees Centigrade; set-up: reference not given here
T1 sequence (whole entry): B1 chain

[2] = substrate: C[N+](C)(C)CCO; experiment: (§1) Apparent Michaelis-Menten Constant (KM) for the acetylation of compound was calculated from Linewear-Burke plots by incubating for 10 minutes at 37 degrees Centigrade
[3] = substrate: C[N+]1(C)CCOC(O)(c2ccc(-c3ccc(C4(O)C[N+](C)(C)CCO4)cc3)cc2)C1; experiment: as §1
[4] = substrate: C[N+]1(C)CCOC(O)(c2ccc(CCCc3ccc(C4(O)C[N+](C)(C)CCO4)cc3)cc2)C1; experiment: as §1

Molecule | Acetylation [1] [%] | further results
C[N+]1(C)CCOC(O)(c2ccc(-c3ccc(C4(O)C[N+](C)(C)CCO4)cc3)cc2)C1 (centres undefined) | 28 | –
C[N+]1(C)CCOC(O)(c2ccc(CCCCc3ccc(C4(O)C[N+](C)(C)CCO4)cc3)cc2)C1 (centres undefined) | 5 | –
C[N+]1(C)CCOC(O)(c2ccc(CCc3ccc(C4(O)C[N+](C)(C)CCO4)cc3)cc2)C1 (centres undefined) | 3 | –
C[N+]1(C)CCOC(O)(c2ccc(CCCc3ccc(C4(O)C[N+](C)(C)CCO4)cc3)cc2)C1 (centres undefined) | 28 | –
C[N+](C)(C)CCO | 100 | –
C[N+]1(C)CCOC(O)(c2ccc(Cc3ccc(C4(O)C[N+](C)(C)CCO4)cc3)cc2)C1 (centres undefined) | 4 | –
B1 | – | Km [2]: 290 µM; Km [3]: 1210 µM; Km [4]: 1270 µM
